Laboratory results taken from patent publication US9144539B2, “Methioninase inhibitor and composition and food or drink containing the same” (Lotte Co., Ltd., priority 2006, dated 2015).

Target: T1, methioninase (Fusobacterium nucleatum subsp. nucleatum, UniProt Q8RDT4)
T1 construct: disrupted by sonication to obtain the enzyme; endogenous in cells; host or cells: Fusobacterium nucleatum JCM 8532, sonicated cell lysate (unpurified)
T1 sequence (Q8RDT4 1-395): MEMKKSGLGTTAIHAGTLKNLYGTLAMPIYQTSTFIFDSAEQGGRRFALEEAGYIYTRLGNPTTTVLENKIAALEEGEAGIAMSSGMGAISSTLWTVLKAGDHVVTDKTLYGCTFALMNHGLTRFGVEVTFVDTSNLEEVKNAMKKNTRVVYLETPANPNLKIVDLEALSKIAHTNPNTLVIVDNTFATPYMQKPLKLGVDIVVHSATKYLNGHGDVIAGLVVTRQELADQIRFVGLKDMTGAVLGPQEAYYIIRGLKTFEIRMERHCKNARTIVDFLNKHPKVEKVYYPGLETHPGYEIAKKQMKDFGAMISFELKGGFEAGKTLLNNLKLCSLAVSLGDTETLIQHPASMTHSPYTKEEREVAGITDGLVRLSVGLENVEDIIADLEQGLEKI
Assay: Cell-free methioninase inhibition test (α-ketobutyrate production from methionine)
Format: biochemical
Conditions: cell-free enzyme from sonicated bacteria; read-out: IC50 against methioninase (converted)

## CC(C)=CCC/C(C)=C/Cc1cc(C(=O)O)cc(CC=C(C)C)c1O [Myrsinoic acid A, myrsinoic acid A]
  IC50: 14.6 µM

## CC(C)=CCCC(C)(O)C1Cc2cc(C(=O)O)cc(CC=C(C)C)c2O1 (stereo not drawn) [Myrsinoic acid B, myrsinoic acid B]
  IC50: 11.2 µM

## CC(C)=CCC[C@]1(C)Oc2c(CC=C(C)C)cc(C(=O)O)cc2C[C@@H]1O [Myrsinoic acid C, myrsinoic acid C]
  IC50: 13.9 µM

## CC(C)=CCC/C(C)=C/Cc1cc(C(=O)O)cc(C/C=C(\C)CCC=C(C)C)c1O [Myrsinoic acid E (Synthesized), Myrsinoic acid E]
  IC50: 12.2 µM

## CC(C)=CCC/C(C)=C/Cc1cc(C(=O)O)cc(C/C=C(\C)CCC=C(C)C)c1O [Myrsinoic acid E, myrsinoic acid E]
  IC50: 12.2 µM

## CC(C)=CC/C=C(\C)C1Cc2cc(C(=O)O)cc(CC=C(C)C)c2O1 (stereo not drawn) [Myrsinoic acid F, myrsinoic acid F]
  IC50: 8.81 µM
